Laboratory results from publication PMC5708365, “Histone lysine methyltransferase structure activity relationships that allow for segregation of G9a inhibition and anti-Plasmodium activity” (MedChemComm, 2017).

Each molecule was assayed against T1, G9a (Homo sapiens, UniProt Q96KQ7). Details: SPA, 5 nM G9a, H3 1-25 peptide 0.8 μM, 3H-SAM 8 μM.
T1 sequence (Q96KQ7 1-1210): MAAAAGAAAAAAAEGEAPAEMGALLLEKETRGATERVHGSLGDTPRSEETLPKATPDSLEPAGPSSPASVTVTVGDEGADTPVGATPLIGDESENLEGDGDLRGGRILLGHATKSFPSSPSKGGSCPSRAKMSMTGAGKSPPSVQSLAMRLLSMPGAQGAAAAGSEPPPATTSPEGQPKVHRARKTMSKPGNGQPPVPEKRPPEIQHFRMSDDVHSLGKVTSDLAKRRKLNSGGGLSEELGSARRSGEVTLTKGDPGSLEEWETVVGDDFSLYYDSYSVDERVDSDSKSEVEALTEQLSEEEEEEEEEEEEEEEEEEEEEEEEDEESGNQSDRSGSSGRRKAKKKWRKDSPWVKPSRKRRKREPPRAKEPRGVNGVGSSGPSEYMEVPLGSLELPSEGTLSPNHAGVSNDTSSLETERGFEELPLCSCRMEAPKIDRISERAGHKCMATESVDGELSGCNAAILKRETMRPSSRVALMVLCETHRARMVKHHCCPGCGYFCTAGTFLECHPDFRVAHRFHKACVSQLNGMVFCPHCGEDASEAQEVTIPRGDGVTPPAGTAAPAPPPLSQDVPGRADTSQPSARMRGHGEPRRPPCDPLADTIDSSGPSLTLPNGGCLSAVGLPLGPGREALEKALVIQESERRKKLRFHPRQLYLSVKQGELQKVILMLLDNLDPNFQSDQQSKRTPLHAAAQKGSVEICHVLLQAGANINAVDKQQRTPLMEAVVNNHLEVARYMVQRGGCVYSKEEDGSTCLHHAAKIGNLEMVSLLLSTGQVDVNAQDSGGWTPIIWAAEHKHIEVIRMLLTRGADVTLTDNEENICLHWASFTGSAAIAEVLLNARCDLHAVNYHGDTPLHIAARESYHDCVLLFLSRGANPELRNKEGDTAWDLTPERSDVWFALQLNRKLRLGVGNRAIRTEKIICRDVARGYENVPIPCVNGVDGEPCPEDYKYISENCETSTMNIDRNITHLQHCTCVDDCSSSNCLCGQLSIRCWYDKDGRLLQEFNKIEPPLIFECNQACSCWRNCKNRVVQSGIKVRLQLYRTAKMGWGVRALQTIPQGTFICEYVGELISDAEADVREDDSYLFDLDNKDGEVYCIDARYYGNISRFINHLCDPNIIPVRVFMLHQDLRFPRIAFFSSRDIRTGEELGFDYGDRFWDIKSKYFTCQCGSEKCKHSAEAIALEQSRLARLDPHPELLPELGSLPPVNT

G9a IC50	Compound
virtually no G9a inhibition	COc1cc2c(NC3CCN(Cc4ccccc4)CC3)nc(N3CCCCC3)nc2cc1OCc1ccccc1 [compound 62]
virtually no G9a inhibition	COc1cc2c(NC3CCN(Cc4ccccc4)CC3)nc(N3CCN(C)CC3)nc2cc1OCc1ccccc1 [compound 61]
inactive against G9a	COc1cc2nc(N3CC(C)CC(C)C3)nc(NC3CCN(Cc4ccccc4)CC3)c2cc1OC (stereo not shown) [compound 14]

Compound	G9a IC50
COc1cc2c(NC3CCN(C)CC3)nc(N3CCCN(C)CC3)nc2cc1OCc1ccccc1 [compound 60]	complete loss of G9a activity

Same assay, conditions: read-out: G9a IC50; SPA, 5 nM G9a, H3 1-25 peptide 0.8 μM, 3H-SAM 8 μM

Compound	IC50 [nM]
COc1cc2nc(N3CCN(C)CC3)nc(Nc3ccccc3)c2cc1OC [compound 57]	> 10000
COc1cc2nc(N3CCN(C)CC3)nc(NC3CCCCC3)c2cc1OC [compound 55]	6440
COc1cc2nc(N3CCN(c4ccccn4)CC3)nc(NC3CCN(Cc4ccccc4)C3)c2cc1OC (stereo not shown) [compound 34]	~10000
COc1cc2c(NC3CCN(C(C)C)CC3)nc(N3CCN(C)CC3)nc2cc1OCCC(C)C [compound 82]	2030
COc1cc2nc(N3CCC(c4ccccc4)CC3)nc(NC3CCN(Cc4ccccc4)CC3)c2cc1OC [compound 16]	> 10000
COc1cc2nc(N3CC(C)CC(C)C3)nc(NC3CCN(C(C)=O)CC3)c2cc1OC (stereo not shown) [compound 37]	> 1000
COc1cc2c(NC3CCN(Cc4ccccc4)CC3)nc(N3CCN(C)CC3)nc2cc1OCCC(C)C [compound 81]	5340
COc1cc2cc(N3CCCCC3)nc(NC3CCN(Cc4ccccc4)CC3)c2cc1OC [compound 87, N-(1-Benzylpiperidin-4-yl)-6,7-dimethoxy-3-(piperidin-1-yl)isoquinolin-1-amine]	> 25000
COc1cc2nc(N3CCCCC3)nc(NC3CCN(C(=O)c4ccccc4)CC3)c2cc1OC [compound 36]	> 10000
COc1cc2c(NC3CCN(C)CC3)nc(N3CCCN(C)CC3)nc2cc1OCc1ccccc1 [compound 60]	> 1000
COc1cc2nc(N3CCN(c4ccccn4)CC3)nc(NC3CCN(C)CC3)c2cc1OC [compound 41]	> 1000
COc1cc2c(NC3CCN(Cc4ccccc4)CC3)nc(N3CCCCC3)nc2cc1OCc1ccccc1 [compound 62]	> 50000
COc1cc2nc(N3CCN(C)CC3)nc(NC3CCCN(Cc4ccccc4)C3)c2cc1OC (stereo not shown) [compound 30]	~1000
COc1cc2nc(N3CC(C)CC(C)C3)nc(Nc3ccccc3)c2cc1OC (stereo not shown) [compound 59]	> 10000
COc1cc2nc(N3CCCCC3)nc(NC3CCN(Cc4ccc(F)cc4)CC3)c2cc1OC [compound 28]	1210
COc1cc2nc(N3CCCCC3)nc(NC3CCCN(Cc4ccccc4)C3)c2cc1OC (stereo not shown) [compound 31]	~1000
COc1cc2c(NC3CCN(Cc4ccccc4)CC3)nc(N3CCN(C)CC3)nc2cc1OCc1ccccc1 [compound 61]	~10000
COc1cc2cc(N3CCC(OC)CC3)nc(NC3CCN(Cc4ccccc4)CC3)c2cc1OC [compound 86, N-(1-Benzylpiperidin-4-yl)-6,7-dimethoxy-3-(4-methoxypiperidin-1-yl)isoquinolin-1-amine]	> 50000
COc1cc2nc(N3CCCCC3)nc(NC3CCN(Cc4ccccc4C)CC3)c2cc1OC [compound 27]	~1000
COc1cc2nc(N3CCC(C)CC3)nc(NC3CCN(Cc4ccccc4)CC3)c2cc1OC [compound 11]	1330
COc1cc2nc(N3CC(C)CC(C)C3)nc(NC3CCN(Cc4ccccc4)CC3)c2cc1OC (stereo not shown) [compound 14]	~10000
CCCCCOc1cc2nc(N3CCN(C)CC3)nc(NC3CCN(Cc4ccccc4)CC3)c2cc1OC [compound 78]	~1000
COc1cc2nc(N3CCCCC3)nc(NC3CCN(Cc4cccc(F)c4)CC3)c2cc1OC [compound 29]	~1000
CCCCCCCCOc1cc2nc(N3CCN(C)CC3)nc(NC3CCN(Cc4ccccc4)CC3)c2cc1OC [compound 76]	1020
COc1cc2nc(N3CCCCC3)nc(Nc3ccccc3)c2cc1OC [compound 58]	> 10000

The next molecules have a lower IC50 than those just listed; values first:

IC50 [nM]	Compound
123	COc1cc2nc(N3CCN(C)CC3)nc(NC3CCN(C(C)C)CC3)c2cc1OC [compound 52]
575	COc1cc2c(NC3CCN(Cc4ccccc4)CC3)nc(N3CCN(C)CC3)nc2cc1OCCCCSC [compound 84]
55	COc1cc2nc(N3CCCN(C)CC3)nc(NC3CCN(C4CCCCC4)CC3)c2cc1OC [compound 48]
< 3	COc1cc2c(NC3CCN(Cc4ccccc4)CC3)nc(N3CCCN(C)CC3)nc2cc1OCCCN(C)C [compound 69]
39	CCCCCCOc1cc2nc(N3CCCN(C)CC3)nc(NC3CCN(Cc4ccccc4)CC3)c2cc1OC [compound 74]
332	COc1cc2nc(N3CCCCCC3)nc(NC3CCN(Cc4ccccc4)CC3)c2cc1OC [compound 9]
116	COc1cc2nc(N3CCN(C)CC3)nc(NC3CCN(Cc4ccccc4F)CC3)c2cc1OC [compound 23]
4	COc1cc2c(NC3CCN(C(C)C)CC3)nc(N3CCN(C)CC3)nc2cc1OCCCN1CCCCC1 [compound 68]
830	COc1cc2nc(N3CCCCC3)nc(NC3CCN(Cc4ccccc4)C3)c2cc1OC (stereo not shown) [compound 33]
25	COc1cc2nc(N3CCN(C)CC3)nc(NC3CCN(CC4CCCCC4)CC3)c2cc1OC [compound 45]
8	COc1cc2c(NC3CCN(Cc4ccccc4)CC3)nc(N3CCN(C)CC3)nc2cc1OCCCN(C)C [compound 70]
128	COc1cccc(CN2CCC(Nc3nc(N4CCN(C)CC4)nc4cc(OC)c(OC)cc34)CC2)c1 [compound 24]
506	COc1cc2nc(N3CCC(N(C)C)CC3)nc(NC3CCN(Cc4ccccc4)CC3)c2cc1OC [compound 13]
211	CCCCCCCCOc1cc2nc(N3CCCN(C)CC3)nc(NC3CCN(Cc4ccccc4)CC3)c2cc1OC [compound 73]
319	COc1cc2nc(N3CCCCC3)nc(NC3CCN(C(C)C)CC3)c2cc1OC [compound 54]
55	COc1cc2nc(N3CCCN(C)CC3)nc(NC3CCN(C(C)C)CC3)c2cc1OC [compound 51]
10	COc1cc2nc(N3CCCN(C)CC3)nc(NC3CCN(CC4CCCCC4)CC3)c2cc1OC [compound 44]
843	CCCCOc1cc2nc(N3CCN(C)CC3)nc(NC3CCN(C(C)C)CC3)c2cc1OC [compound 80]
114	CCCCCCOc1cc2nc(N3CCN(C)CC3)nc(NC3CCN(Cc4ccccc4)CC3)c2cc1OC [compound 77]
30	COc1cc2nc(N3CCN(C)CC3)cc(NC3CCN(C)CC3)c2cc1OC [compound 91, 6,7-Dimethoxy-2-(4-methylpiperazin-1-yl)-N-(1-methylpiperidin-4-yl)quinolin-4-amine]
295	COc1cc2nc(N3CCCCC3)nc(NC3CCN(CC4CCCCC4)CC3)c2cc1OC [compound 46]
869	COc1cc2nc(N3CCCCC3)nc(NC3CCN(Cc4cccc(C)c4)CC3)c2cc1OC [compound 25]
690	COc1cc2nc(N3CCCCC3)nc(NC3CCN(Cc4ccc(C)cc4)CC3)c2cc1OC [compound 26]
576	COc1cc2nc(N3CCC(OC)CC3)nc(NC3CCN(Cc4ccccc4)CC3)c2cc1OC [compound 12]
132	COc1cc2nc(N3CCN(C)CC3)nc(NC3CCN(Cc4cccc(F)c4)CC3)c2cc1OC [compound 22]
223	COc1cc2c(NC3CCN(Cc4ccccc4)CC3)nc(N3CCN(C)CC3)nc2cc1OCCCSC [compound 83]
683	CCCCOc1cc2nc(N3CCN(C)CC3)nc(NC3CCN(Cc4ccccc4)CC3)c2cc1OC [compound 79]
78	COc1cc2nc(N3CCN(C)CC3)nc(NC3CCN(Cc4ccc(C)cc4)CC3)c2cc1OC [compound 19]
169	COc1cc2nc(N3CCN(C)CC3)nc(NC3CCN(Cc4ccccc4C)CC3)c2cc1OC [compound 20]
